Laboratory results published in patent EP0336417A2, “Phosphonate initiators for light cured compositions” (DENTSPLY INTERNATIONAL, INC., priority 1988, dated 1989).

Experiment: Solubility of initiator in NCO/TEGDMA resin
Assay type: physicochemical
Details: not soluble above about 2%; percentages by weight
Excerpt: NCO/TEGDMA is a resin blend described in copending SN 040, 636 and used as illustrated in U.S. patent 4,514,174 and comprises a blend of NCO, the reaction product of hexamethylene diisocyanate (HMDI) and Bis-GMA [drawing 4] , and triethyleneglycol dimethacrylate (TEGDMA). At concentrations above about 2%, the benzoyl di (2,6 dimethylphenyl) phosphonate is not soluble in NCO/-TEGDMA resin. When used with an NCO/-TEGDMA resin in concentrations up to about 2%, however, the resin can be cured to a clear, hard film.

## Cc1cccc(C)c1OP(=O)(Oc1c(C)cccc1C)C(=O)c1ccccc1 [Benzoyl di-(2,6-dimethylphenyl) phosphonate]
  concentration up to which soluble in NCO/TEGDMA resin: about 2%
